Reference: article PMC10862732 (bioRxiv, 2024)

System: T7 LysY/Iq E. coli
Assay type: cell-based
Settings: 0 – 0.5 mM IPTG, 37 °C, 12 hours, OD600

RRIRFRPPYL•••G••PRFPPPFPIPRIPRIP [Tur1a]
Host growth upon induction of AMP expression with IPTG (self-depletion): dramatically slowed growth
